Results from ChEMBL document CHEMBL1201862, “PubChem BioAssay data set” (2004).
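Five concentrations, 48 hours, 96-well plates. GI50 is the concentration that inhibits growth by half.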 The source made the active and inactive calls. Cut-off read from the data, not from the text of the source: active = GI50 up to about 1.1 µM and inactive = higher.

Experiments:
Test in all cases: growth of human tumour cells (NCI), 48 h
CAKI-1 = system: CAKI-1
NCI-H226 = system: NCI-H226
U-251 = system: U-251
NCI-H23 = system: NCI-H23
Hs-578T = system: Hs-578T
SNB-75 = system: SNB-75
UACC-257 = system: UACC-257
MOLT-4 = system: MOLT-4
T47D = system: T47D
CCRF-CEM = system: CCRF-CEM
NCI-H460 = system: NCI-H460
EKVX = system: EKVX
HCC 2998 = system: HCC 2998
HCT-15 = system: HCT-15
COLO 205 = system: COLO 205
OVCAR-5 = system: OVCAR-5
TK-10 = system: TK-10
SK-MEL-28 = system: SK-MEL-28
MDA-MB-435 = system: MDA-MB-435
SW-620 = system: SW-620

SMILES | GI50 (CAKI-1) | GI50 (NCI-H226) | GI50 (U-251) | GI50 (NCI-H23) | GI50 (Hs-578T) | GI50 (SNB-75) | GI50 (UACC-257) | GI50 (MOLT-4) | GI50 (T47D) | GI50 (CCRF-CEM) | GI50 (NCI-H460) | GI50 (EKVX) | GI50 (HCC 2998) | GI50 (HCT-15) [µM] | GI50 (COLO 205) | GI50 (OVCAR-5) | GI50 (TK-10) | GI50 (SK-MEL-28) | GI50 (MDA-MB-435) | GI50 (SW-620)
C/C(=N\NC(N)=O)C(CN(C)C)C(c1ccccc1)c1c(O)c2ccccc2oc1=O (stereo not given) | > 100 µM (inactive) | > 100 µM (inactive) | > 100 µM (inactive) | > 100 µM (inactive) | > 100 µM (inactive) | > 100 µM (inactive) | > 100 µM (inactive) | 71.9 µM (inactive) | > 100 µM (inactive) | 90.8 µM (inactive) | > 100 µM (inactive) | > 100 µM (inactive) | > 100 µM (inactive) | > 100 | 36.4 µM (inactive) | > 100 µM (inactive) | > 100 µM (inactive) | > 100 µM (inactive) | > 100 µM (inactive) | > 100 µM (inactive)
O=C1C(Cl)=C(NCCN2CCOCC2)C(=O)c2c(O)ccc(O)c21 | 1.74 µM (inactive) | 9.95 µM (inactive) | 2.21 µM (inactive) | 1 µM (active) | 3.13 µM (inactive) | 1.71 µM (inactive) | 2.11 µM (inactive) | 1.54 µM (inactive) | 1.99 µM (inactive) | 1.56 µM (inactive) | 1.58 µM (inactive) | 4.9 µM (inactive) | 1.89 µM (inactive) | 1.72 | 1.5 µM (inactive) | 1 µM (active) | 8.85 µM (inactive) | 1.48 µM (inactive) | 1.64 µM (inactive) | 1.33 µM (inactive)
O=C1Nc2ccccc2/C1=N/NC(=O)C(O)(c1ccccc1)c1ccccc1 | 31.7 µM (inactive) | 20.6 µM (inactive) | 18.2 µM (inactive) | 16.1 µM (inactive) | 25.6 µM (inactive) | 21.1 µM (inactive) | 22 µM (inactive) | 15.2 µM (inactive) | 23.8 µM (inactive) | 26.1 µM (inactive) | 17.2 µM (inactive) | 30.5 µM (inactive) | 14.6 µM (inactive) | 16.4 | 18 µM (inactive) | 17.2 µM (inactive) | 28.8 µM (inactive) | 17.7 µM (inactive) | 17 µM (inactive) | 17.1 µM (inactive)
CC(C)C(OC(=O)c1cc(NC(=S)c2ccccc2)ccc1Cl)C(C)C | 17.2 µM (inactive) | 16 µM (inactive) | 19.1 µM (inactive) | 6.5 µM (inactive) | 21.1 µM (inactive) | 19.4 µM (inactive) | 13.7 µM (inactive) | 10.1 µM (inactive) | 7.85 µM (inactive) | 14.9 µM (inactive) | 14.1 µM (inactive) | 12.9 µM (inactive) | 12.4 µM (inactive) | 9.27 | 16.1 µM (inactive) | 42.7 µM (inactive) | 21.5 µM (inactive) | 21.8 µM (inactive) | 14.7 µM (inactive) | 21.8 µM (inactive)
OC1NC2CC3NC(O)C(O)NC3CC2NC1O (stereo not given) | > 100 µM (inactive) | > 100 µM (inactive) | > 100 µM (inactive) | > 100 µM (inactive) | > 100 µM (inactive) | > 100 µM (inactive) | > 100 µM (inactive) | > 100 µM (inactive) | > 100 µM (inactive) | > 100 µM (inactive) | > 100 µM (inactive) | > 100 µM (inactive) | > 100 µM (inactive) | > 100 | > 100 µM (inactive) | > 100 µM (inactive) | > 100 µM (inactive) | > 100 µM (inactive) | > 100 µM (inactive) | > 100 µM (inactive)
C[Si](C)(c1ccccc1)[C@H]1CCCC=C1CCNC1c2ccccc2CCc2ccccc21 | 73.5 µM (inactive) | > 100 µM (inactive) | > 100 µM (inactive) | 61.5 µM (inactive) | > 100 µM (inactive) | 67.3 µM (inactive) | 52.4 µM (inactive) | 30 µM (inactive) | 35.9 µM (inactive) | 1.07 µM (active) | 61.7 µM (inactive) | 29.4 µM (inactive) | > 100 µM (inactive) | 51.2 | 38.9 µM (inactive) | > 100 µM (inactive) | > 100 µM (inactive) | > 100 µM (inactive) | 76.2 µM (inactive) | > 100 µM (inactive)
CCCC(=O)n1[nH]c(=O)n(-c2ccc(Cl)cc2)c1=O | > 100 µM (inactive) | > 100 µM (inactive) | > 100 µM (inactive) | > 100 µM (inactive) | > 100 µM (inactive) | > 100 µM (inactive) | > 100 µM (inactive) | > 100 µM (inactive) | > 100 µM (inactive) | > 100 µM (inactive) | > 100 µM (inactive) | > 100 µM (inactive) | > 100 µM (inactive) | > 100 | > 100 µM (inactive) | > 100 µM (inactive) | > 100 µM (inactive) | > 100 µM (inactive) | > 100 µM (inactive) | > 100 µM (inactive)
